{"source": "patent US10556860B2", "about": "“hTERT modulators and methods of use” (Arizona Board of Regents on Behalf of the University of …, priority 2015, dated 2020)", "key": {"MYC mRNA": {"tested_on": "MYC mRNA", "test": "qPCR of MYC mRNA in MCF7 cells", "format": "cell-based, human", "details": "72 h", "procedure": "qPCR. MCF7 and melanoma cells were treated with GTC365 and BRACO-19 for 72 h. Total RNA was extracted using an RNeasy mini-prep kit (Qiagen) and quantitated by measuring absorbance at 260 nm. cDNA was synthesized using a Takara PrimeScript™ RT Reagent Kit with gDNA eraser and then used as a template for qPCR. The qPCR was performed using Kapa Probe Fast qPCR Master Mix with ABI Taqman probes of hTERT (Hs00972656_m1), BCL2 (HS00608023_m1, FAM-labeled) or MYC (Hs00153408_m1), and GAPDH (Hs02758991_g1, VIC-labeled). The Ct values were measured by running Rotor-Gene Q, and the relative quantity of hTERT, BCL2, and MYC mRNA was obtained compared to GAPDH as an internal control.\nBCL2 is a downstream molecule to hTERT such that BCL2 expression is activated by hTERT to repress apoptosis. To further define the effect of GTC365 on the transcription of hTERT, the relative mRNA levels of MYC and BCL2 were determined by quantitative PCR analysis in MCF7 cells after treatment with GTC365 for 72 h. […] A series of GTC260 analogs were synthesized and their effect on hTERT gene expression in MCF7A and U87 cells determined (FIG. 7). […] Therefore, GTC365 directly repressed the transcription of hTERT and then led to a downstream decrease of BCL2 expression."}, "WT 5-12 G-quadruplex": {"tested_on": "WT 5-12 G-quadruplex", "test": "CD kinetics, temperature-jump, WT", "format": "biochemical, human", "details": "2 equiv", "procedure": "FIGS. 10A and 10B are a set of graphs showing (A) comparison of kinetics of initial folding rate of the WT 5-12 G-quadruplex with GTC365 and BRACO-19 by the temperature-jump method. (B) Enhanced initial folding rate of the 5-12 G-quadruplexes carrying different hTERT mutants by GTC365. The time-course CD signal of preheated oligo with compound or DMSO in a buffer containing 10 mM Tris-HCl (pH 7.5) and 5 mM KCl was monitored at 262 nm and 25° C.\nFor the kinetics analysis using the temperature-jump method, theoligo in a buffer containing 10 mM Tris-HCl (pH 7.5) was heated forl min at 95° C., and then a mixture of KCl and compound was addedand incubated for 1 min. Meanwhile, the CD cuvette was also heatedat 95° C. As soon as the sample in the CD cuvette at the hightemperature was placed in the CD chamber, a time-dependent CDsignal at 262 nm was recorded immediately. The initial folding ratewas determined by one-phase association curve fitting (eq 1) of thekinetics curve using GraphPad Prism 5: Y=Y0+(Plateau−Y0)*(1−e^−kx) (1) where Y is the CD signal at any time point x, Y0 is the Y value whentime (x) is zero, plateau is the Y value at infinite time, and k is the rateconstant.\nTo evaluate the comparative effects of GTC365 relative to BRACO-19 on the cooperative folding process, we carried out two different experiments. First, we compared the distribution of the different populations of small and large species using single-molecule experiments as described previously withGTC365 and BRACO-19 in the G138/139A mutant. Similar to the G124/125A mutant, the population of fully folded structures is small in the G138/139A mutant without addition of ligand. […] We then used a temperature-jump method84to compare the initial folding rate of the 5-12 WT G-quadruplex with GTC365 and BRACO-19 using a time-course CD signal curve. […] GTC365 alsoincreased the initial folding rates of G124A, G124/125A, andG146A in a dose-dependent manner by 0.049, 0.042, and 0.054s^−1 at 2 equiv, whereas the effect on the G138/139A mutant was insignificant (FIG. 10B). […]"}, "[1]": {"target": "WT 5-12 G-quadruplex of hTERT core promoter (FAM/TAMRA probe)", "test": "FRET assay for compound screening and Kd, WT probe", "format": "binding, human", "procedure": "FRET assay for compound screening and determination of Kd value. FRET probes of WT, G124/125A, and G146A of the 5-12 G-quadruplex were synthesized and labeled with FAM (Ex. 490 nm/Em. 520 nm) and TAMRA (Ex. 560 nm/Em. 580 nm) at each end by MGW Operon Inc. The WT probe (50 nM) was annealed in a buffer containing 10 mM Tris-HCl (pH 7.5) and 5 mM KCl by heating at 95° C. for 5 min and slowly cooling to room temperature. Compounds (50 μM) and probe were incubated for 1 h at room temperature. The same volume of DMSO served as a control. For Kd value determination, the WT, G124/125A, and G146A probes were annealed, and then several concentrations of compound were treated for 1 h at room temperature. Dose-dependent fluorescence intensity at 520 nm was measured by a microplate reader (BioTek Synergy HT). The data were corrected with the blank signal of buffer and compound. The relative fluorescence intensity compared to DMSO was used for binding curve fitting to determine Kd value using GraphPad Prism software.\nThe hTERT core promoter region includes 12 runs of consecutive guanines that form two G-quadruplexes in tandem on the G-rich strand. […] When the G-quadruplex is folded, two fluorophores are in proximity, which leads to a decrease in FAM fluorescence. […]"}}}
{"smiles": "CN(C)c1ccc(Nc2c3ccc(NC(=O)CCN4CCCC4)cc3nc3cc(NC(=O)CCN4CCCC4)ccc23)cc1", "note": "[BRACO-19, reference compound]", "values": [{"measurement": "effect on MYC mRNA level", "setting": "MYC mRNA", "result": "decreased"}, {"measurement": "increase of initial folding rate", "setting": "WT 5-12 G-quadruplex", "result": 0.017, "unit": "s⁻¹"}]}
{"smiles": "N=C(N)NCCCS(=O)(=O)Nc1ccc(Nc2c3ccccc3nc3cc([N+](=O)[O-])ccc23)cc1", "note": "[GTC365]", "values": [{"measurement": "Kd", "setting": "[1]; WT probe, FAM- and TAMRA-labeled oligomer", "result": "~400", "unit": "nM"}, {"measurement": "reduction of fluorescence intensity (FRET)", "setting": "[1]; compounds 50 μM, WT probe 50 nM, 10 mM Tris-HCl, 5 mM KCl, 1 h", "result": 94, "unit": "%"}, {"measurement": "effect on MYC mRNA level", "setting": "MYC mRNA", "result": "no significant change"}, {"measurement": "increase of initial folding rate", "setting": "WT 5-12 G-quadruplex", "result": 0.042, "unit": "s⁻¹"}, {"measurement": "initial folding rate", "setting": "WT 5-12 G-quadruplex; without compound 0.051, 5 mM KCl, 25° C.", "result": 0.093, "unit": "s⁻¹"}]}
